Source: ChEMBL document CHEMBL5678818, “Discovery of potent SOS1 inhibitors that block RAS activation via disruption of the RAS-SOS1 interaction” (Proc Natl Acad Sci U S A, 2019)

Key:
[1] = biological target: T1, Serine/threonine-protein kinase NLK (Homo sapiens) (UniProt Q9UBE8); assay: Inhibition of NLK (unknown origin) assessed as residual activity at 100 nM by KINOMEscan analysis relative to control
T1 sequence (whole entry): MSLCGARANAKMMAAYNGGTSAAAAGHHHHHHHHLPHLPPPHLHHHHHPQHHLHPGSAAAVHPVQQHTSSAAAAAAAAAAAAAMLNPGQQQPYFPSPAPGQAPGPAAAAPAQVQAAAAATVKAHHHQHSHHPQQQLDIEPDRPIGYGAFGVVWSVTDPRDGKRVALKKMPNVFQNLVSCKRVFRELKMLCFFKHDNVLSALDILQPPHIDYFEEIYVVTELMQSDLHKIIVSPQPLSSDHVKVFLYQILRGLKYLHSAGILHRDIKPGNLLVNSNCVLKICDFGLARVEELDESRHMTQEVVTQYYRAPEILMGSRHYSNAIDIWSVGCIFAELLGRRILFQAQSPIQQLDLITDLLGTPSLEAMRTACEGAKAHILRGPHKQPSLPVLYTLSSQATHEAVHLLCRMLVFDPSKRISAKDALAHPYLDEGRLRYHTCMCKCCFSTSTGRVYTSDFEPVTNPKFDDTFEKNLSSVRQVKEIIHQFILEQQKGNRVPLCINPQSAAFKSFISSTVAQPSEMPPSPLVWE

[2] = biological target: Serine/threonine-protein kinase B-raf (Homo sapiens) (UniProt P15056); assay: Inhibition of BRAF (unknown origin) assessed as residual activity at 100 nM by KINOMEscan analysis relative to control
[3] = biological target: Serine/threonine-protein kinase PAK 2 (Homo sapiens) (UniProt Q13177); assay: Inhibition of PAK2 (unknown origin) assessed as residual activity at 100 nM by KINOMEscan analysis relative to control
[4] = biological target: T2, Serine/threonine-protein kinase ULK3 (Homo sapiens) (UniProt Q6PHR2); assay: Inhibition of ULK3 (unknown origin) assessed as residual activity at 100 nM by KINOMEscan analysis relative to control
T2 sequence (whole entry): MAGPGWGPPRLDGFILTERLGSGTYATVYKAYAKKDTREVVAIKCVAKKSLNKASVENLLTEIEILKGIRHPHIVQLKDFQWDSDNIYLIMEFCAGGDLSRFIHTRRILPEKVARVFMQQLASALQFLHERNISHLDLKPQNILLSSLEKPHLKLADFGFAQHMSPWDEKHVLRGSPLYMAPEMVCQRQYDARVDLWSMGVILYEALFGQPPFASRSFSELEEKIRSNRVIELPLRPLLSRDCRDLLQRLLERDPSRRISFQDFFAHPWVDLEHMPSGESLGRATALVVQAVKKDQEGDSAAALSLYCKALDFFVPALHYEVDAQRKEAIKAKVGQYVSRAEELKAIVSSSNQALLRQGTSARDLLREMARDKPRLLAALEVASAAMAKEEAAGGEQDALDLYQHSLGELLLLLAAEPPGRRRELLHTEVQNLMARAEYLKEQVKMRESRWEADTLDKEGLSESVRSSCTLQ

[5] = biological target: Serine/threonine-protein kinase PAK 5 (Homo sapiens) (UniProt Q9P286); assay: Inhibition of PAK7 (unknown origin) assessed as residual activity at 100 nM by KINOMEscan analysis relative to control
[6] = biological target: T3, Serine/threonine-protein kinase ULK2 (Homo sapiens) (UniProt Q8IYT8); assay: Inhibition of ULK2 (unknown origin) assessed as residual activity at 100 nM by KINOMEscan analysis relative to control
T3 sequence (whole entry): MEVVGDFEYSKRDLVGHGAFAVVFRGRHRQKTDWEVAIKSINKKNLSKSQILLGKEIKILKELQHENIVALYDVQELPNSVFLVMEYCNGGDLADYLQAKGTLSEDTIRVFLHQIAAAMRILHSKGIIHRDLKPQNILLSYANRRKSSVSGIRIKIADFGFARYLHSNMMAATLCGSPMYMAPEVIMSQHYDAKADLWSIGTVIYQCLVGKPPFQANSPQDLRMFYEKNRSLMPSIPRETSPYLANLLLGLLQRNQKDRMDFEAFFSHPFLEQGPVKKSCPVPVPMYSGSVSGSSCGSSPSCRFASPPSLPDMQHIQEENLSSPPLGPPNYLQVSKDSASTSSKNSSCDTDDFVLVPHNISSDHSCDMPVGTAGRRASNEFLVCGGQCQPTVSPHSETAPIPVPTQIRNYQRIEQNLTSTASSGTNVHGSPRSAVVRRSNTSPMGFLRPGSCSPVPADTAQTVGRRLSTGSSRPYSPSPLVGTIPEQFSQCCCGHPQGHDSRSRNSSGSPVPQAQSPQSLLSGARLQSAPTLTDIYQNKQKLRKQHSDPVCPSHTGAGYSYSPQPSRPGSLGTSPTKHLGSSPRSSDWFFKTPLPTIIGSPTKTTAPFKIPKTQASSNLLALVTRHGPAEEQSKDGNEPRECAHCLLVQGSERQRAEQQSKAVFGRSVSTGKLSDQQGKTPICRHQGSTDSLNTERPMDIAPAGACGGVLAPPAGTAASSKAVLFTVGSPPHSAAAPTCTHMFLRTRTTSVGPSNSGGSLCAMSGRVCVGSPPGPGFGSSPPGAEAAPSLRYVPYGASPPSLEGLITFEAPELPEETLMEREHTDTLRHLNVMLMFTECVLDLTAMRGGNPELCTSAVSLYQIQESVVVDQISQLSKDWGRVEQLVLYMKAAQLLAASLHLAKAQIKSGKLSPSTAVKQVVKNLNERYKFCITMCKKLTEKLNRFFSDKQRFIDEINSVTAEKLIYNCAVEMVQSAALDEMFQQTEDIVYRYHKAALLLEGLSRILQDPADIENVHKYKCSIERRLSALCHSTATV

[7] = biological target: Serine/threonine-protein kinase Nek7 (Homo sapiens) (UniProt Q8TDX7); assay: Inhibition of NEK7 (unknown origin) assessed as residual activity at 100 nM by KINOMEscan analysis relative to control
[8] = system: Receptor-type tyrosine-protein kinase FLT3 (Homo sapiens), P36888 [UNDEFINED MUTATION]; assay: Inhibition of FLT3 ITD mutant (unknown origin) assessed as residual activity at 100 nM by KINOMEscan analysis relative to control
[9] = biological target: Receptor-type tyrosine-protein kinase FLT3 (Homo sapiens) (UniProt P36888); assay: Inhibition of autoinhibited FLT3 (unknown origin) assessed as residual activity at 100 nM by KINOMEscan analysis relative to control
Receptor-type tyrosine-protein kinase FLT3 (Homo sapiens), sequence (P36888 whole entry): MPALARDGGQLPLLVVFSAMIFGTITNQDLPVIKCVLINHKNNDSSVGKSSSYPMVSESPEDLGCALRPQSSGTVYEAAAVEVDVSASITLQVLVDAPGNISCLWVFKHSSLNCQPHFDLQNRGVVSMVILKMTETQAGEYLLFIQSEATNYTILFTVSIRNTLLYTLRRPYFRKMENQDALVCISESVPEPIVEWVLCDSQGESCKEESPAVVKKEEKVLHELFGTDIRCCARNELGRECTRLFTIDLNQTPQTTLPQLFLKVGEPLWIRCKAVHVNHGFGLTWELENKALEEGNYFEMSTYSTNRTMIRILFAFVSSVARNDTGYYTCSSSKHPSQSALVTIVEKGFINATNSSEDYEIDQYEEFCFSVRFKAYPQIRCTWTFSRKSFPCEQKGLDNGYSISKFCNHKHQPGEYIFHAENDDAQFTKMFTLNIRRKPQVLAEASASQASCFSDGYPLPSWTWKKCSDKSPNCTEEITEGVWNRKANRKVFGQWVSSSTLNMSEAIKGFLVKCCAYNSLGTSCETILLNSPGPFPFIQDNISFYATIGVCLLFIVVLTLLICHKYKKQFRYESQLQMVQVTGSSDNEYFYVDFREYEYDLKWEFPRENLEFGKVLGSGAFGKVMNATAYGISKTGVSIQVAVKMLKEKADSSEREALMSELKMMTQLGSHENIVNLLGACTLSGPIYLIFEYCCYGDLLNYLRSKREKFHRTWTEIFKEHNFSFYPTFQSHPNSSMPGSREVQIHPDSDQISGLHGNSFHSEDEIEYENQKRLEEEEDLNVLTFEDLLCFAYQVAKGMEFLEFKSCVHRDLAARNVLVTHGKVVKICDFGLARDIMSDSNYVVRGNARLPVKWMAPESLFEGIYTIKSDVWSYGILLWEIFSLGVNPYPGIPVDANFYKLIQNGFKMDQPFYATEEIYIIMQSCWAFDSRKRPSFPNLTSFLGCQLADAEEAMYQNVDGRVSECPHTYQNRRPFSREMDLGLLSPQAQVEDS

Serine/threonine-protein kinase PAK 2 (Homo sapiens), sequence (Q13177 whole entry): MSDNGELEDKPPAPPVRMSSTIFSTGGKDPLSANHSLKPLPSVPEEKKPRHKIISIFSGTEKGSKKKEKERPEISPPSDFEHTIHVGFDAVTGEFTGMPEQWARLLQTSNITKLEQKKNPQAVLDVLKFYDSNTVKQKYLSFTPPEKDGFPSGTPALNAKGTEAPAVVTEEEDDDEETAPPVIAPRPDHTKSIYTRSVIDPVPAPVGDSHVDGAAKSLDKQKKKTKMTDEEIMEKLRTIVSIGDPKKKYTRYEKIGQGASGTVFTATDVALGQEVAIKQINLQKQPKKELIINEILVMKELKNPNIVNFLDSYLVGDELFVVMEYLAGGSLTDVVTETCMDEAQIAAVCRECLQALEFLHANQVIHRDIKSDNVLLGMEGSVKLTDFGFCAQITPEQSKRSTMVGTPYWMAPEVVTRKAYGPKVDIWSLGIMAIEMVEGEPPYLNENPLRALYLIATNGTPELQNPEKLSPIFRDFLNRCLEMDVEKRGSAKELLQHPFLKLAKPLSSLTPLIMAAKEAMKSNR
Serine/threonine-protein kinase PAK 5 (Homo sapiens), sequence (Q9P286 whole entry, looked up): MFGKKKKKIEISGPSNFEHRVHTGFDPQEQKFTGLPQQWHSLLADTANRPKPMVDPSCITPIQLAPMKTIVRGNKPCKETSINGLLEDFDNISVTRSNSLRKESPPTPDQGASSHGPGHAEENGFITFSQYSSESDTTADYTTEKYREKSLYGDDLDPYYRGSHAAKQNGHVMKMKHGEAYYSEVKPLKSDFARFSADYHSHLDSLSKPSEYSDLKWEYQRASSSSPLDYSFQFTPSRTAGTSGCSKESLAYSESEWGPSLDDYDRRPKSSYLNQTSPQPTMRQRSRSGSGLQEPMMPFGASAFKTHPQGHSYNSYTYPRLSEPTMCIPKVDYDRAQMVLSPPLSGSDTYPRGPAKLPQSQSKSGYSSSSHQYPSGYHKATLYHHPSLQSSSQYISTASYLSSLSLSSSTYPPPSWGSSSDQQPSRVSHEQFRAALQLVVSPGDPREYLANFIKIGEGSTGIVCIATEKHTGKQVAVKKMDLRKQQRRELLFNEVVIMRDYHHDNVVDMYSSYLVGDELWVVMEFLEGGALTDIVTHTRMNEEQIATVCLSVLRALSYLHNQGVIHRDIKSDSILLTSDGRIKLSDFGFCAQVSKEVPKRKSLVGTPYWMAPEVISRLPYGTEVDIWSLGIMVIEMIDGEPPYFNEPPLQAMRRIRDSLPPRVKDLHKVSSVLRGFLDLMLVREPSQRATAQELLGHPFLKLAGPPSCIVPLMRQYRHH
Serine/threonine-protein kinase B-raf (Homo sapiens), sequence (P15056 whole entry): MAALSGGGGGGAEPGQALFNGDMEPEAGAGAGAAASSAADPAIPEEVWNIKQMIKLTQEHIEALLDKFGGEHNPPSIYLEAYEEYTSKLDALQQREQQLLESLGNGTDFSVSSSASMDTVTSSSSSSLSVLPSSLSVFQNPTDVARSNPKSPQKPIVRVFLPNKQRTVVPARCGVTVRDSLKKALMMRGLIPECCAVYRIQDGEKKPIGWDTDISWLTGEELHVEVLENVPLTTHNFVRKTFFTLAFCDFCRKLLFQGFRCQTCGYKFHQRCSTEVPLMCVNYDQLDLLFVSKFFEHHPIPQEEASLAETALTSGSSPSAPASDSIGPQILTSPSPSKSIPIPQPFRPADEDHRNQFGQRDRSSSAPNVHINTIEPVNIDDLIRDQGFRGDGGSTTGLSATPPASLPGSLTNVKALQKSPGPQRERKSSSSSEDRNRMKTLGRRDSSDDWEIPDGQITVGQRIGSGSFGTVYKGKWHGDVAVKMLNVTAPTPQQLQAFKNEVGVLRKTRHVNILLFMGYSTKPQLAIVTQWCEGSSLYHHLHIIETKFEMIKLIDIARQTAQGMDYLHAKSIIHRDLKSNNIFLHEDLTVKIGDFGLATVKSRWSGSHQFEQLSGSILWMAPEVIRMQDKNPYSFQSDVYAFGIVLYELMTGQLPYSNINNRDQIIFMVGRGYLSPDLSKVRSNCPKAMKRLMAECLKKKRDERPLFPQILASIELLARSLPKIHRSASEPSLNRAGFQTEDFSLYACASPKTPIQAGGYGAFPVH
Receptor-type tyrosine-protein kinase FLT3 (Homo sapiens), P36888 [UNDEFINED MUTATION], sequence (P36888 whole entry, looked up, change not shown): as the sequence (P36888 whole entry) above
Serine/threonine-protein kinase Nek7 (Homo sapiens), sequence (Q8TDX7 whole entry, looked up): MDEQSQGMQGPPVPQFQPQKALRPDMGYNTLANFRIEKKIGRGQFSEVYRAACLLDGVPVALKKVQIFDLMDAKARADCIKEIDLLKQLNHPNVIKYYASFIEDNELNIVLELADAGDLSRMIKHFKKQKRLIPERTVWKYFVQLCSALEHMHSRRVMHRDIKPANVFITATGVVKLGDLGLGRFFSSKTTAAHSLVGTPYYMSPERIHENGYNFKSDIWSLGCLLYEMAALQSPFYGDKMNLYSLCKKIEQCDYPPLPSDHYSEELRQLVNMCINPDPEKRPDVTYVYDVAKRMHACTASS

## COc1cc2ncnc(N[C@H](C)c3cccc4ccccc34)c2cc1OC
[1]
  Activity: 82%
[2]
  Activity: 88%
[3]
  Activity: 100%
[4]
  Activity: 89%
[5]
  Activity: 100%
[6]
  Activity: 100%
[7]
  Activity: 100%
[8]
  Activity: 100%
[9]
  Activity: 88%
